Patent publication US11401555B2, “Genetic polymorphisms associated with stroke, methods of detection and uses thereof” (CELERA CORPORATION, priority 2008, dated 2022)

Experiment: Stroke statin response (SSR) in the CARE pravastatin trial: pravastatin-treated versus placebo-treated, by SNP genotype
Assay type: in vivo, human
Details: for HR (hazard ratio for stroke, pravastatin vs placebo): rs10757274 (hCV26505812), mode GEN, genotype AA, placebo = ref
Text: (hCV26505812) for association with SSR in CARE (Table 37) and PROSPER (Table 38), including both unadjusted and adjusted analyses (adjusted for factors such as age, gender, smoking status, hypertension, diabetes, BMI, and LDL and HDL levels). Table 37 provides results in CARE, and Table 38 provides results in PROSPER (whether each analysis is unadjusted or adjusted is indicated in the “adjust” column in Table 37, or by “unadj” and “adj” column labels in Tables 38). With respect to Tables 22-32 and 37-38, the columns labeled “Genotype” (in Tables 22-28 and 37), “Geno_Placebo” (in Tables 29-30 and 38), and “Geno_Resp” (in Tables 31-32 and 38) indicate the genotype which the given stroke risk or SSR results correspond to. […] See Example Six below for further information relating to Tables 22-32 and 37-38. […] As used herein, the term “benefit” (with respect to a preventive or therapeutic drug treatment) is defined as achieving a reduced risk for a disease that the drug is intended to treat or prevent (e.g., stroke) by administrating the drug treatment, compared with the risk for the disease in the absence of receiving the drug treatment (or receiving a placebo in lieu of the drug treatment) for the same genotype. The term “benefit” may be used herein interchangeably with terms such as “respond positively” or “positively respond”. For stroke risk and statin response associations based on samples from the CARE and PROSPER trials described herein, stroke risk is assessed by comparing the risk of stroke for a given genotype with the risk of stroke for a reference genotype either in the placebo arm of the trial or in the whole study population of the trial, and statin response is assessed by comparing the risk of stroke in the pravastatin arm of the trial with the risk of stroke in the placebo arm of the trial for the same genotype. […] In CARE, SNPs were analyzed for association with stroke risk or SSR. […] Also in the CARE and PROSPER trials, the chromosome 9p21 SNP […] (hCV26505812) was analyzed further for association with SSR, including unadjusted and adjusted analysis. Adjusted analysis in CARE (Table 37) was adjusted for age, gender, smoking status, hypertension, diabetes, body mass index (BMI), and LDL and HDL levels, and adjusted analysis in PROSPER (Table 38) was adjusted for country, gender, age, LDL, HDL, smoking status (current vs. past or never), history of hypertension, and diabetes. Table 37 provides results in CARE, and Table 38 provides results in PROSPER (whether each analysis is unadjusted or adjusted is indicated in the “adjust” column in Table 37, or by “unadj” and “adj” column labels in Tables 38). All the p-values (including Pint values) provided in Tables 37-38 are two-sided p-values.

## CC[C@H](C)C(=O)O[C@H]1C[C@H](O)C=C2C=C[C@H](C)[C@H](CC[C@@H](O)C[C@@H](O)CC(=O)O)[C@H]21 [pravastatin]
Heterozygous carriers of SNP rs10757274 (chromosome 9p21), adjusted for traditional risk factors
  HR (hazard ratio) for stroke events, pravastatin-treated versus placebo-treated: 0.61
Adjusted (age, male, current smoking, hypertension, diabetes, BMI, baseline LDL, HDL)
  HR (hazard ratio for stroke, pravastatin vs placebo): 0.92
unadjusted
  HR (hazard ratio for stroke, pravastatin vs placebo): 0.85
rs10757274, adjusted analysis, mode REC, genotype GA + AA, pravastatin arm, total 1018
  EVENTS (number of stroke events): 47
